According to US10670605B2, “Cysteine reactive probes and uses thereof” (The Scripps Research Institute, priority 2015, dated 2020):

Legend:
Experiment in all cases: Competitive isoTOP-ABPP, cell lysates;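 as to isoTOP-ABPP reactivity profile ratio, Q99873 C109: Heavy/light ratio DMSO over fragment-treated so higher means more cysteine engagement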
Type in all cases: binding
ACAT1 C119 (P24752) = biological target: T1, ACAT1 C119 (P24752) (Homo sapiens, UniProt P24752)
T1 sequence (P24752 34-427): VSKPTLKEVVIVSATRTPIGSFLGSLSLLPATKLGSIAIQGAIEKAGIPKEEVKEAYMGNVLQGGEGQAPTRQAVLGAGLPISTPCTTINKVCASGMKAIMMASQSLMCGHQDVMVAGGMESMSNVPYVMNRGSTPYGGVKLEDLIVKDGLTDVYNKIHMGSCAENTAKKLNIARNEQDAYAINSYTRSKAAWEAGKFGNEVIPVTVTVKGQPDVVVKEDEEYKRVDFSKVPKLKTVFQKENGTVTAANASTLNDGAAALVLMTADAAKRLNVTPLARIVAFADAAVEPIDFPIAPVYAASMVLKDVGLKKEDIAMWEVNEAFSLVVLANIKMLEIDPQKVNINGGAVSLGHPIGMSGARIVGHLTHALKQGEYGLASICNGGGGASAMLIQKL

PRMT1 C109 (Q99873) = PRMT1 C109 (Q99873) (Homo sapiens, UniProt Q99873);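 as to isoTOP-ABPP reactivity profile ratio, Q99873 C109: Heavy/light ratio DMSO over fragment-treated so higher means more cysteine engagement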
Sequence of PRMT1 C109 (Q99873) (Q99873 whole entry, the tested form may be a part): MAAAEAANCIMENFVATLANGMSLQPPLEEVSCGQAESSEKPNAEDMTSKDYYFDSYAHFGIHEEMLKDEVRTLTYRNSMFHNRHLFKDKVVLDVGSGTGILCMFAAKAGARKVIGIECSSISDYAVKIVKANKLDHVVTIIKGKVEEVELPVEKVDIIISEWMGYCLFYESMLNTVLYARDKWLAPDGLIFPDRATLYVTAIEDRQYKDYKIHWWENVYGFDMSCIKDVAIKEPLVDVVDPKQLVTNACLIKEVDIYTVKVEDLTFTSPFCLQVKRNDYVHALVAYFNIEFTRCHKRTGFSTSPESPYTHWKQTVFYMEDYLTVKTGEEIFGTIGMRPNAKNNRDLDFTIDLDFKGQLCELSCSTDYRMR

XPO1 C528 (O14980) = XPO1 C528 (O14980) (Homo sapiens, UniProt O14980); settings: for isoTOP-ABPP ratio O14980_C528: 231
Sequence of XPO1 C528 (O14980) (O14980 whole entry): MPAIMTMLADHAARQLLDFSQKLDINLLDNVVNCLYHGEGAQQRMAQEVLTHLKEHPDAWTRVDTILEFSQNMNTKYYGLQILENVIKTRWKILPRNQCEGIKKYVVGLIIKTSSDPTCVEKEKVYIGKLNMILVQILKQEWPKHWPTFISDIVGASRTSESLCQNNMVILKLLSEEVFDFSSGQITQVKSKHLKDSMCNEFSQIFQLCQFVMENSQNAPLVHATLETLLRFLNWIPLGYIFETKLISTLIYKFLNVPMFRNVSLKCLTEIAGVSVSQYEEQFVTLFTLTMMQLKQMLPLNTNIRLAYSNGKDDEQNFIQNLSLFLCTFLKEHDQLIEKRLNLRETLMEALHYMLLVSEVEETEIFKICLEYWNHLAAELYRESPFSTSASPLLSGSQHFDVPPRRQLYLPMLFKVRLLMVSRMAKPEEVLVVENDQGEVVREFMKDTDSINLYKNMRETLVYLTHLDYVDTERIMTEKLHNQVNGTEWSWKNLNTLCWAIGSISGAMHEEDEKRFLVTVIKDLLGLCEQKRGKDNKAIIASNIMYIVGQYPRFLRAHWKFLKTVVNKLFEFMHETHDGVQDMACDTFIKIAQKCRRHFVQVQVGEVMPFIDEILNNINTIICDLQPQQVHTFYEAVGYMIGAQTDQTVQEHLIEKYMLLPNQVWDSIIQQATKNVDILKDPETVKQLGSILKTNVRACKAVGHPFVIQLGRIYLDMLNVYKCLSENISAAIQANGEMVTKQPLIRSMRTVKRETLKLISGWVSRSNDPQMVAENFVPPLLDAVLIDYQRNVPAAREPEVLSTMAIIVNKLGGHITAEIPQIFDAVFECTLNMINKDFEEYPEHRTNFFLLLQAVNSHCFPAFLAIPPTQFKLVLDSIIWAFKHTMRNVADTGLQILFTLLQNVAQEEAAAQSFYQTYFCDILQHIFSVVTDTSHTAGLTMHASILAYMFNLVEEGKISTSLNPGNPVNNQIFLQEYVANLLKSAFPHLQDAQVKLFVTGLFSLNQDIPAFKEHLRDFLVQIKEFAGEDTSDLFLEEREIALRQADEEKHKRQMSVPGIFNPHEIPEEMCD

ADA C75 (P00813) = biological target: T2, ADA C75 (P00813) (Homo sapiens, UniProt P00813)
T2 sequence (P00813 1-363): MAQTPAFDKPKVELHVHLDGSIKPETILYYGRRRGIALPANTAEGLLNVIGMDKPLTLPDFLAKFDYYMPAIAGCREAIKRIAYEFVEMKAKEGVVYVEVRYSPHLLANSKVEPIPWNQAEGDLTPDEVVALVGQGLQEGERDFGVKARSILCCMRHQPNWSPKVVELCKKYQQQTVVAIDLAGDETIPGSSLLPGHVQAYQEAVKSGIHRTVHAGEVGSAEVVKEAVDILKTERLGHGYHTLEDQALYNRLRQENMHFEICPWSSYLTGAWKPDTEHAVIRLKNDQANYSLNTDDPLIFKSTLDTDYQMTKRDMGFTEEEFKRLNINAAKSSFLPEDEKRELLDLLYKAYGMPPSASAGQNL

PCK2 C306 (Q16822) = biological target: T3, PCK2 C306 (Q16822) (Homo sapiens, UniProt Q16822)
T3 sequence (Q16822 33-640): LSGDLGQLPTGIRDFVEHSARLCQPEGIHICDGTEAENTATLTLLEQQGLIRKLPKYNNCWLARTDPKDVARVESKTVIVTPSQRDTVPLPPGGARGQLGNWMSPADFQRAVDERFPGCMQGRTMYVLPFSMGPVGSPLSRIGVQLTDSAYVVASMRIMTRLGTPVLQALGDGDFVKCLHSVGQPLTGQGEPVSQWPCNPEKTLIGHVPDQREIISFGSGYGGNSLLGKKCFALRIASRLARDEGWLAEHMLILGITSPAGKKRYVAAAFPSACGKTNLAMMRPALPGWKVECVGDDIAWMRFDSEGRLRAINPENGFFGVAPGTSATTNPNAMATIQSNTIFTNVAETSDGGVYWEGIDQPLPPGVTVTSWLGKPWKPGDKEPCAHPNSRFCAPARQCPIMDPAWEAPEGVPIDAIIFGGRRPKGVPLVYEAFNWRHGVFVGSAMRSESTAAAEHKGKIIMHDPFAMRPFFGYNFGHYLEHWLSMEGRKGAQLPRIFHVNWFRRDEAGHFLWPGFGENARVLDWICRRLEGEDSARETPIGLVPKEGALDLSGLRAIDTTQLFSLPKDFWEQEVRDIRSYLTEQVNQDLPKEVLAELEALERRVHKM

R value (DMSO/fragment) (ACAT1 C119 (P24752); 500 μM, in vitro, MDA-MB-231) | R value (DMSO/fragment) (ACAT1 C119 (P24752); 500 μM, invitro, ramos) | R value (DMSO/fragment) (PRMT1 C109 (Q99873); 500 μM, in vitro, MDA-MB-231) | R value (DMSO/fragment) (PRMT1 C109 (Q99873); 500 μM, invitro, ramos) | R value (DMSO/fragment) (XPO1 C528 (O14980); 500 μM, in vitro, MDA-MB-231) | R value (DMSO/fragment) (XPO1 C528 (O14980); 500 μM, invitro, ramos) | R value (DMSO/fragment) (ADA C75 (P00813); 500 μM, invitro, ramos) | isoTOP-ABPP ratio P24752_C119 (ACAT1 C119 (P24752); 500 μM, invitro, 231) | isoTOP-ABPP ratio, Q99873_C109 (PRMT1 C109 (Q99873); 500 μM, invitro, 231) | isoTOP-ABPP ratio O14980_C528 (XPO1 C528 (O14980); 500 μM, invitro) | SMILES | further results
– | – | – | – | – | – | – | – | – | – | O=C(CCl)NC1C(O)OC(CO)C(O)C1O (mixture of isomers) [compound 44] | isoTOP-ABPP reactivity profile ratio, P24752_C119 (ACAT1 C119 (P24752); 500 μm, in-vitro_ramos_231): 0.8; isoTOP-ABPP reactivity profile ratio, Q99873_C109 (PRMT1 C109 (Q99873); 500 μm, in-vitro_ramos_231): 0.8
3.9 | 3.2 | 3.1 | 12.6 | 4.9 | 3.1 | 7.3 | – | – | – | COc1ccc2c(c1)CCCN2C(=O)CCl [compound 2] | blockade of IA-alkyne labeling of C109 of PRMT1 (PRMT1 C109 (Q99873); competitive isoTOP-ABPP): blocking IA-alkyne labeling
2.1 | 5.3 | 1.3 | 1.8 | 20.0 | 20.0 | 1.5 | – | – | – | O=C(CCl)Nc1cc(C(F)(F)F)cc(C(F)(F)F)c1 [compound 3] | R value (DMSO/fragment) (PCK2 C306 (Q16822); 500 μM, in vitro, MDA-MB-231): 10.6; R value (DMSO/fragment) (PCK2 C306 (Q16822); 500 μM, invitro, ramos): 0.9
– | – | – | – | – | – | – | – | – | – | COc1ccc(C2CC(c3cccs3)=NN2C(=O)CCl)cc1 (stereo not shown) [compound 4] | R value (DMSO/fragment) (ACAT1 C119 (P24752); 250 μM, in vitro, MDA-MB-231): 1.8; R value (DMSO/fragment) (ACAT1 C119 (P24752); 250 μM, in vitro, Ramos): 0.2; R value (DMSO/fragment) (PCK2 C306 (Q16822); 250 μM, in vitro, MDA-MB-231): 2.2; R value (DMSO/fragment) (PRMT1 C109 (Q99873); 250 μM, in vitro, MDA-MB-231): 1.1; R value (DMSO/fragment) (PRMT1 C109 (Q99873); 250 μM, in vitro, Ramos): 0.2; R value (DMSO/fragment) (XPO1 C528 (O14980); 250 μM, in vitro, MDA-MB-231): 0.9; R value (DMSO/fragment) (XPO1 C528 (O14980); 250 μM, in vitro, Ramos): 1.1; R value (DMSO/fragment) (ADA C75 (P00813); 250 μM, in vitro, Ramos): 0.1
– | – | – | – | – | – | – | 1.8 | 0.9 | 20.0 | C=CC(=O)N(c1ccccc1)c1ccc(Br)cc1 [compound 5] | isoTOP-ABPP ratio P24752_C119 (ACAT1 C119 (P24752); 500 μM, invitro, ramos): 2.4; isoTOP-ABPP ratio, Q16822_C306 (PCK2 C306 (Q16822); 500 μM, invitro, 231): 1.7; isoTOP-ABPP ratio, Q99873_C109 (PRMT1 C109 (Q99873); 500 μM, invitro, ramos): 1.3; isoTOP-ABPP ratio, P00813_C75 (ADA C75 (P00813); 500 μM, invitro, ramos): 2.5
– | – | – | – | – | – | – | 1.1 | 1.1 | 0.7 | CNS(=O)(=O)C=Cc1ccc2c(ccn2Cc2ccccc2)c1 [compound 6] | –
